Structures are written as SMILES.

Test [1] relates to GSC83 and GBM43 cells. The test can be described thus: Cell viability / proliferation after NSC, IR, TMZ alone or combined. The conditions noted are these: NSC combined with IR or/and TMZ vs single treatments, 72 hours. It counts as cell-based.
For test [2], the system named is GSC83 and GBM43 cells. The experiment in a line: Annexin V/propidium iodide flow cytometry after NSC, IR, TMZ alone or combined. Conditions: NSC combined with IR or/and TMZ vs single treatments, 48 hours. The class given is cell-based.
Test [3] has as its system LC3B lipidation and p62/SQSTM1 in GSCs and GBM cells. The test can be described thus: Immunoblot of autophagy markers after NSC, IR, TMZ. The conditions noted are these: NSC with IR or/and TMZ. The class given is cell-based. For orientation: In western blotting, separated proteins are transferred to a membrane and probed.
Procedure: (A) GBM stem-like cells, GSCTS576, and patient-derived xenograft cells, GBM44, were treated with NSC, IR or/and TMZ at the indicated concentrations and combinations for 72 hours. Thereafter, cells were analyzed for cellular viability. Data are shown as mean±SD, n=3 of biological replicates. #, Combination vs. TMZ, P<0.01; &, Combination vs. IR, P<0.01; *, Combination vs. NSC, P<0.01 (B) GSCTS576 and GBM44 cells were treated with NSC, IR or and TMZ with indicated concentration or does for 48 hours, stained with Annexin V/PI, and analyzed by flow cytometry; n=3 biological replicates. Data are shown as mean±SD. #, Combination vs. TMZ, P<0.01; &, Combination vs. IR, P<0.01; *, Combination vs. NSC, P<0.01. (C) TS576 GSCs and GBM44 with indicated treatments were collected and analyzed for levels of the indicated proteins. […]
To determine the effect of combination treatment with NSC185058 and irradiation (IR) or/and TMZ, stem-like glioma cells (GSC83) and patient-derived xenograft GBM (GBM43) cells, were treated with NSC185058, TMZ, IR or the combination of two or three treatments and examined cellular proliferation modulation. […] Toward this end, we analyzed protein expression of autophagy marker protein LC3B and p62/SQSTM1, an established autophagy substrate, DNA damage indicator γH2AFX/γH2AX and apoptosis indicator cleaved CASP3/caspase-3 in both tested cell lines.
In test [4] the test system is LC3B, p62/SQSTM-1 and LAMP2 in GSC M83 and JK83 cells. The experiment in a line: Immunoblot of autophagy markers (LC3B, p62, LAMP2) in GSCs treated with AZD2014 and NSC. It counts as cell-based. The conditions noted are these: NSC in the presence of AZD2014. The method, then: FIG. 5. A mTORC1/2 inhibitor AZD2014 inhibited cell survival, mTORC1 and mTORC2 activities in GSCs and glioma cells. (A) GSC M83 and JK83 and glioma cells U87 were treated with indicated concentration of AZD2014 for 72 h, then cell viability was evaluated. (B) GSC M83 and JK83 were treated with the indicated concentration of AZD2014 for 1 hr, or with 2 μM AZD2014 for the specified time. Cells were collected for immunoblot analysis. β-actin was used as a loading control; Results are representative of 2 independent experiments. *P<0.05, **P<0.01, paired two-way Student's t-test. Data are representative from three independent experiments with similar results.
FIG. 6. NSC enhanced the cytotoxicity of a mTORC1/2 inhibitor AZD2014 in GSCs. (A) GSC M83 and JK83 were exposed to DMSO control vs AZD2014 vs NSCs vs AZD2014 in combination with NSC for 72 hr. Cells were collected for immunoblot analysis using indicated antibodies. (B) Immunofluorescence analyses for LC3B puncta in GSC M83 and JK83 cells with indicated treatments. (C and D) GSC M83 and JK83 and/or neural progenitor cells (NPC) were treated as indicated in (A), cell viability was tested at 72 h after treatment (C), and cell apoptosis was measured by Annexin V FACS assay 48 h after treatment. Data are representative from three independent experiments with similar results. […]

For test [5], the system named is LC3B puncta in GSC M83 and JK83 cells. The test can be described thus: LC3B immunofluorescence (puncta, autophagosomes). It counts as cell-based. Conditions: NSC in cells treated with AZD2014. As for the experimental part: FIG. 6. NSC enhanced the cytotoxicity of a mTORC1/2 inhibitor AZD2014 in GSCs. (A) GSC M83 and JK83 were exposed to DMSO control vs AZD2014 vs NSCs vs AZD2014 in combination with NSC for 72 hr. Cells were collected for immunoblot analysis using indicated antibodies. (B) Immunofluorescence analyses for LC3B puncta in GSC M83 and JK83 cells with indicated treatments. (C and D) GSC M83 and JK83 and/or neural progenitor cells (NPC) were treated as indicated in (A), cell viability was tested at 72 h after treatment (C), and cell apoptosis was measured by Annexin V FACS assay 48 h after treatment. Data are representative from three independent experiments with similar results.
Immunofluorescent staining. GSCs were seeded onto LabTek CC2-treated tissue culture slides (Thermo Fisher) and cultured for 24 hours. Cells were then fixed with 4% formaldehyde (Fisher) for 15 min, and permeabilized with 0.1% Triton X-100, and then blocked with AquaBlock (East Coast Bio, North Berwick, Me.) for 60 minutes. The slides were incubated with indicated primary antibodies according to the manufacturer's instructions. After being washed for three times with PBS-T, cells were incubated with secondary antibody (Alexa 488 and 594, 1:200) and DAPI-containing mounting solution Vectashield (Vector Laboratories). Cells were analyzed on a Nikon inverted microscope Eclipse Ti-U equipped with a digital camera. […]

For test [6], the system named is GSC JK83 orthotopic xenografts. The test can be described thus: GSC JK83 orthotopic brain tumor xenograft model (survival, BLI, tissue staining). It counts as in vivo, mice. The source says: FIG. 7. NSC enhance anticancer efficacy of AZD2014 in a patient-derived GSC xenograft model. […] Treatments were started at one week post-implantation. Bioluminescent (BLI) images were taken after the last treatment, and representative images are shown. Scale bar, photons/sec/cm2/steradian. (B) Kaplan-Meier of mice bearing GSC JK83 orthotopic xenografts with indicated treatments. (C) The brains of mice bearing orthotopic xenografts with indicated treatments were collected for immunohistochemical evaluation using indicating antibody. *P<0.05, **p<0.01, […]. Data are representative from three independent experiments with similar results.
Frozen brain tissue sections with GBM xenografts were dried and then fixed in were fixed in 4% paraformaldehyde (PFA) in PBS for 5 minutes. Tissue sections were blocked with AquaBlock (East Coast Bio, North Berwick, Me.) for an hour and then were probed with appropriate primary antibodies 4° C. overnight. Tissue sections were incubated with Alexa 488 or 594 labelled secondary antibodies (1:200) and DAPI-containing mounting solution Vectashield (Vector Laboratories), and representative images were photographed using a Nikon inverted microscope Eclipse Ti-U equipped with a digital camera.
To determine whether the enhancement of AZD2014 therapeutic efficiency by combination with NSC measured in vitro extends to an orthotopic model, GSC JK83 glioma spheres were employed to initiate intracerebral xenografts in mice.

For the molecule `S=C(Nc1ccccn1)c1ccccn1` [NSC185058, N-pyridin-2-yl-pyridine-2-carbothioamide], the tumor cell proliferation result in the test with GSC83 and GBM43 cells [1] is “more reduction in tumor cell proliferation cells than single treatments”. The “apoptotic cells (Annexin V/PI)” value with GSC83 and GBM43 cells [2] is “more apoptotic cells than single treatments”. In addition, in test [3], the “sensitization to IR or/and TMZ (LC3B lipidation, p62)” value was “sensitized the tested cells to IR or/and TMZ by suppressing LC3B lipidation and increasing p62”. Further, the “autophagy markers (LC3B conversion, p62 and LAMP2 degradation)” value in test [4] is “attenuated autophagy induction”. In addition, the “autophagosomes number (LC3 B immunofluorescence)” value in test [5] is on record as “markedly decreased”. In addition, in test [6] (NSC (50 mg/kg) alone), the “autophagic flux (LC3B puncta staining) in brain tumor xenografts” value was “slight impact on autophagic flux”. Moreover, the “AZD2014-induced autophagy response in the brain” value in test [6] (NSC (50 mg/kg) in the combination protocol) is “strongly attenuated AZD2014-induced autophagy response”. The mouse survival entry in test [6] (NSC (100 mg/kg), AZD2014 (50 mg/kg), alone or combined, vs control) is on record as “modest but significant effects on mouse survival”. In addition, the “effect of NSC on inhibition efficiency of AZD2014 on xenograft growth” value in test [6] (combination treatment) is listed as “enhanced the inhibition efficiency of AZD2014”.

These data come from patent US11793816B2, “Methods for enhancing cytotoxic cancer therapy through inhibition of ATG4B” (Northwestern University, priority 2019, dated 2023).
